# Experimental data as given in US6610473B1 (priority 1999, dated 2003).
# Molecular target: HPV16-E6 protein (Human papillomavirus type 16, UniProt P03126)
# Sequence (P03126 whole entry): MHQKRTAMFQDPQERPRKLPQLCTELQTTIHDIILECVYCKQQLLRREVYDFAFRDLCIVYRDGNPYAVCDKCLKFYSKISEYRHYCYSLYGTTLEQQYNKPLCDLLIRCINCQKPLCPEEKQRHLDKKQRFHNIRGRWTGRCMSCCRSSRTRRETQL
row,Substance,clones obtained in another screening assay for HPV-E6 protein-binding peptides
1,NH2-LFDIFRLCAQ PVLVHGHTRV-COOH [E61-20.pep],obtained
2,NH2-LVGRVRIGVS VFIRGGRLL-COOH [E61-19.pep],obtained
